The values below come from article PMC7983969 (Virologica Sinica, 2021).

As a reminder, the IC50 is the concentration that inhibits the measured activity by half. Broadly, the half-life is the time in which the quantity being followed falls by half. Higher therefore signals slow loss. The term Tmax denotes the time from dosing to the highest level. The Cmax is the peak of the concentration-time curve. As a reminder, the EC50 is the concentration needed to bring the measured effect to its halfway point. In general, CC50 refers to the concentration giving 50% cytotoxicity.

A value given as a limit tells only on which side of the number the result lay.

The test system of data set [1] is PEDV 3CL^pro. The following applies: PEDV 3CLpro; ref Ye et al. [2020]; cited from earlier work.
The test system of data set [2] is feline infectious peritonitis virus (FIPV). To be noted: cats, subcutaneous, 5 mg/kg or 2 mg/kg; ref Murphy et al. [2018]; cited from earlier work.
Data set [3] in a line: Pharmacokinetics study of RDV-N in ICR mice. Type of data set: in vivo.
The test system of data set [4] is PEDV. The experiment in a line: Anti-PEDV activity assay, PEDV-induced cytopathic effect. Type of data set: cell-based. The following applies: Vero E6 cells, PEDV 0.01 MOI, until virus control showed complete CPE.
A short description of data set [5]: Water solubility and lipophilicity. Type of data set: physicochemical.
For data set [6], the system named is PEDV. The data set is described as follows: Anti-PEDV activity assay, viral loads. The data set is classed as cell-based. To be noted: for concentration that completely inhibited PEDV replication: Vero E6 cells, PEDV 0.01 MOI, 48 h post infection, qRT-PCR and TCID50.
For data set [7], the system named is Vero E6 cells. The experiment in a line: Cytotoxicity assay. Type of data set: cell-based, African green monkey. The following applies: 72 h, CCK-8 assay. On the technique in general: Tetrazolium assays rely on reduction of a dye to a coloured formazan, in cell work by metabolically active cells.
For data set [8], the system named is PEDV spike protein. The experiment in a line: Indirect immuno-fluorescence assay. The following applies: 0.2 μmol/L, 48 h, Vero E6 cells. The data set is classed as cell-based, porcine epidemic diarrhea virus, variant strain SDSX16.
Data set [9] relates to PDCoV. To be noted: ref Brown et al. [2019]; cited from earlier work.
Data set [10] has as its system human cell lines and primary cells. The following applies: cited from earlier work.

Regarding GC376, the IC50 in data set [1] is 1.11 µM.
`N#C[C@@]1(c2ccc3c(N)ncnn23)O[C@H](CO)[C@@H](O)[C@H]1O` [RDV-N]: in [2], the cure rate is recorded as 100%. Also, in [3] (male, ICR, mouse, plasma, iv, 25 mg/kg), the half-life was 1.02 h. Besides, the half-life in [3] (male, ICR, mouse, plasma, po, 50 mg/kg) was 1.2 h. Besides, in data set [3] (male, ICR, mouse, plasma, po, 50 mg/kg, Tmax, mice), the time of peak concentration (Tmax) is no more than 1 h. Further, the AUClast in data set [3] (mice, IV, 25 mg/kg) is listed as 14,513 h × ng/mL. In [3] (mice, PO, 50 mg/kg), this molecule showed an AUClast of 4556 ng·h/mL and a peak concentration (Cmax) of 1826 ng/mL. Moreover, the “concentration at which PEDV-induced CPE was obviously blocked” value in [4] worked out at 0.2 µmol/L. Moreover, in [5], the lipophilicity entry is given as “low lipophilicity” and the water solubility entry is given as “poor water solubility”. For the same molecule, the “fold more potent than NHC (EC50)” value in [6] (72 h post infection, qRT-PCR) is reported as 3. Further, the “concentration that completely inhibited PEDV replication” value in [6] worked out at 2.0 µmol/L. The “maximal non-toxic concentration (MNTC)” value in data set [7] was determined as 125 µmol/L. For the same molecule, in data set [8], the “fluorescence intensity (viral protein expression)” value is listed as “significantly decreased”.
Consider `CCC(CC)COC(=O)[C@H](C)N[P@](=O)(OC[C@H]1O[C@@](C#N)(c2ccc3c(N)ncnn23)[C@H](O)[C@@H]1O)Oc1ccccc1` [RDV, remdesivir], for which the “concentration at which PEDV-induced CPE was obviously blocked” value in [4] was found to be 0.5 µmol/L. For the same molecule, the EC50 in [9] was 0.02 µM. Moreover, the CC50 in data set [10] is 1.7 to 15 µM. Further, the “concentration that completely inhibited PEDV replication” value in data set [6] came out at 7.8 µmol/L. Also, the “maximal non-toxic concentration (MNTC)” value in data set [7] turned out to be 125 µmol/L.
